The record followed here is patent EP3723745B1, “PHENOXY ACIDS FOR THE TREATMENT OF NEUROMUSCULAR DISORDERS” (NMD Pharma A/S, priority 2017, dated 2019).

The target of one assay is T1, CIC-1 channels (Rattus norvegicus, UniProt P35524).
T1 construct: from tissue; host or cells: intact soleus muscle of 12-14-week old Wistar rats
T1 sequence (P35524 1-994): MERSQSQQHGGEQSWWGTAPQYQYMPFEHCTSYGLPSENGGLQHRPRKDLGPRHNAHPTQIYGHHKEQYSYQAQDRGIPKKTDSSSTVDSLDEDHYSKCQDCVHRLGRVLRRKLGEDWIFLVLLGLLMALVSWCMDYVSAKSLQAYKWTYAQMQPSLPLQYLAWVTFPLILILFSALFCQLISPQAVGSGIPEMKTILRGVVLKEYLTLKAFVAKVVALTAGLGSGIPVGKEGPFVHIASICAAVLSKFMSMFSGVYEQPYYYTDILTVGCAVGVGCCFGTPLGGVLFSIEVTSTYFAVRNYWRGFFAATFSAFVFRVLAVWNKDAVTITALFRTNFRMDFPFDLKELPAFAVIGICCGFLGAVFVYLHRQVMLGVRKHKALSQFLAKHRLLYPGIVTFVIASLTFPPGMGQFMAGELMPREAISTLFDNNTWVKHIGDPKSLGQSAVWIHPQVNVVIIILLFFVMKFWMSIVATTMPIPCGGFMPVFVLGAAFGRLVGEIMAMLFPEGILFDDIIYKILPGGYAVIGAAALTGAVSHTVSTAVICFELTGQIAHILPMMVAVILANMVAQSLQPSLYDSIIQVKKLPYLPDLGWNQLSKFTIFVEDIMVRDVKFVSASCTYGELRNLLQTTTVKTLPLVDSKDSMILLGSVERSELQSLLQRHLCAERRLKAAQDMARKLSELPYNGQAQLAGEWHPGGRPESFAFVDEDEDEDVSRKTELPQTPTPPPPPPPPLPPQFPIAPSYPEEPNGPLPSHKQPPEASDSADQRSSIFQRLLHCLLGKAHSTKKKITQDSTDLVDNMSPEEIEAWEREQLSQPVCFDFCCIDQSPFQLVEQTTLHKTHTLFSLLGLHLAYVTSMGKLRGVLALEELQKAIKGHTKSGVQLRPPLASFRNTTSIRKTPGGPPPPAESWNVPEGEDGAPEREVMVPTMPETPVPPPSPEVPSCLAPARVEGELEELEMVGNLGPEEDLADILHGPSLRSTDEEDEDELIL
The assay is described as follows: Electrophysiological measurement of compound inhibition of CIC-1 in rat muscle (Gm, three micro-electrodes technique). The assay is classed as cell-based. The note with it: reduction of Gm in fibres of whole rat soleus muscles, approx. 30°C; n = number of experiments. The source says: Table 2: Inhibition of CIC-1 ion channel using compounds of the invention

The next assay deals with soleus muscles. The assay is described as follows: Measurement of force in an in vitro model: isolated rat nerve-muscle preparation with tubocurarine. The note with it: Rattus norvegicus, 40 min; percentage of initial force restored after 40 mins with 50 µM test compound; tubocurarine (115 nM) for 90 mins; read-out: Point increase. As to the method: Recovery of force is quantified as the percentage of the force prior to tubocurarine that is recovered by the compound.
The current invention relates to compounds that inhibit CIC-1 ion channels and increase muscle excitability and thereby improve muscle function in clinical conditions where muscle activation is failing. Such conditions result in loss of contractile function of skeletal muscle, weakness and excessive fatigue. In this series of experiments the compounds were tested for their ability to restore contractile function of isolated rat muscle when the neuromuscular transmission had been compromised akin to neuromuscular disorders.
Experimentally, soleus muscles from 4-5 wk old rats were isolated with the motor nerve remaining attached. The nerve-muscle preparations were mounted in experimental setups that enabled electrical stimulation of the motor nerve. Stimulation of the motor nerve led to activation of the muscle fibres and ensuing force production that was recorded.
After mounting the nerve-muscle preparation in the experimental setup, the contractile function of the muscle was initially assessed under the control conditions (Figure 2A). […] The experimental condition mimics the failing neuromuscular transmission in a range of neuromuscular disorders. After addition of tubocurarine the contractile force declined over the next 90 mins to 10-50 % of the control force. 50 µM of the test compound was then added and the contractile force recovered despite the continued presence of tubocurarine. To quantify the ability of the compound to restore force the percentage of the initial force that was restored was determined after 40 mins of compound exposure (Figure 2B) and the point increase is reported in Table 3. Table 3: Percentage increase of initial force that was restored using compounds of the invention

In a further assay the test system is female Lewis rats. The assay is described as follows: Measurement of in situ muscle contractile characteristics (isometric hindlimb force, cisatracurium block). Type of assay: in vivo, rat. The note with it: for average increase in twitch peaks: 12 Hz; for average increase in twitch peaks / average increase in tetanic force: cisatracurium infusion; for average increase in tetanic force: 80 Hz; for restore force to muscles in vivo: muscles partially inhibited by a neuromuscular blocker, summary in words. As to the method:
Isometric hindlimb force was measured in 12-week old female Lewis rats in the presence and absence of compound.
Rats were placed under anesthesia with isoflurane (2-4%), intubated and subsequently connected to a micro ventilator (Microvent 1, Hallowell EMC, US). Two stimulation electrodes were inserted through the skin to stimulate the sciatic nerve. A small incision was made proximal to the ankle, to expose the Achilles tendon, which was tied by cotton string, and connected to a force transducer (Fort250, World Precision Instruments) with adjustable position (Vernier control). The Achilles tendon was then cut distal to the attached cotton string. The rat was placed on a heated pad, and to prevent movement artefacts from contraction of the ankle dorsiflexors, the foot was fixated by tape on a footplate.
Muscle contractile properties were assessed by applying an electrical current (under supramaximal voltage conditions) to the nerve and recording the force generated by the muscle. The muscle was stretched until maximal force was obtained, when assessed by 2 Hz stimulation. Isometric force was measured every 30 seconds at 12 Hz (Twitch), 10 pulses, and at every 5 minutes at 80 Hz (Tetanic) for 1 second (80 pulses). This stimulation pattern was employed throughout the experiment, expect in few cases where 80 Hz stimulation was replaced by 12 Hz (10 pulses). […] When the level of neuromuscular inhibition was stable, the test article was injected i.v. at the chosen concentration. The effect of test article was assessed on its ability to increase force generated from the stimulation pattern applied. The effect was assessed in the ability to increase force per se (tetanic, 80 Hz, stimulation), and the ratio between individual twitch peaks (12 Hz stimulation). The effect was monitored for at least 1 hour after injection of test article. In addition, the time from injection of test article to maximal effect on force (both twitch and tetanic) was noted and the time for the effect to disappear (return to baseline), if possible. When appropriate the infusion of neuromuscular blocking agent was ceased, with the stimulation pattern continued, and the return of force to control levels was monitored. Animals were sacrificed by cervical dislocation while still fully sedated.

The next assay deals with T2, human CIC-1 channels (Homo sapiens, UniProt P35523).
T2 construct: host or cells: CHO cells constitutively expressing human ClC-1
The assay is described as follows: Automated patch-clamp on human CIC-1 expressed in CHO cells. Type of assay: cell-based. The note with it: difference in half activation voltage, compound added intracellularly vs control cell patches; positive shift = CIC-1 inhibition. As to the method:
The investigatory goal of these experiments was to evaluate how compounds affect the open probability and current amplitude of human CIC-1 channels expressed in CHO cells. Experiments were performed using an automated patch clamp system that allowed high throughput testing of whole cell patches together with both intracellular and extracellular addition of compound.
Automated whole cell patch clamp experiments were performed with the Qpatch 16 system (Sophion Bioscience, Ballerup, Denmark) at room temperature. Data acquisition and analysis were performed in the Qassay software (ver. 5.6, Odense).
To evoke CIC-1 currents in whole cell patches, the membrane potential was initially stepped from a holding potential of -30 mV to +60 mV for 100 ms and then to various test voltages (sweeps) ranging from +120 mV to -140 mV in steps of 20 mV for 300 ms. To obtain tail currents, the membrane potential was stepped to -100 mV after each test voltage for 300 ms and then relaxed to -30 mV for 2 sec between sweeps (Figure 3). I/V relationships for whole cell instant and steady state current amplitudes were obtained by plotting average current densities at the beginning and at the end of the 300 ms step against the membrane potential (Figure 4).
In order to determine the relative overall open probability (P0), the instantaneous tail currents were normalized to the maximal tail current obtained following the most positive voltage step and plotted against the test voltage. Plots of normalized tail currents from each whole cell patch were then fitted to a Boltzmann function allowing determination of half activation voltages (V1/2, Figure 5).
For automated patch clamp experiments extracellular solutions contained: 2 mM CaCl2, 1 mM MgCl2, 10 mM HEPES, 4 mM KCI, 145 mM NaCl, 10 mM Glucose, pH adjusted to 7.4 with NaOH (2 M). Osmolality adjusted to -320 using sucrose.
Intracellular solutions contained: 80 mM CsF, 60 mM CsCI, 5/1 mM KOH/EGTA, 10 mM HEPES, 10 mM NaCl, pH adjusted to 7.2 with NaOH (2 M). Osmolality adjusted to -320 mOsm using sucrose.
Cells used in patch clamp experiments were Chinese hamster ovary cells (CHO) constitutively expressing human CIC-1 channels. The amino acid sequence encoded by the cDNA used to create this cell line was identical to the translated sequence for GenBank accession number NM_000083.2. Cells were produced by Charles River (Catalogue CT6175, Cleveland OH, USA) in a cryopreserved format. Experiments were performed on the cells directly after thawing (3 × 10^6 cells used in each experiment).
To evaluate the compound effect on CIC-1, when applied directly to the intracellular side of the cell membrane, the half activation voltage, V1/2, was determined from whole cell patches with compound added to the intracellular solution and then compared to V1/2 determined from control cell patches with only vehicle added to the intracellular solution. Additionally, the effect of extracellular added compound was evaluated by determine V1/2 and steady state current amplitudes before and after exchanging the extracellular solution to contain compound.
The difference in half activation voltage of CIC-1 channels, ΔV1/2, was determined as the difference between the cell patches treated intracellularly with compound and control cells patches and is reported in Table 4 below. A positive shift in ΔV1/2 is reflecting CIC-1 channel inhibition by the tested compound. P-values of <0.05 is considered significant. […]
On the technique in general: The patch-clamp technique gives a direct electrical read-out from membranes.

T2 sequence (P35523 whole entry): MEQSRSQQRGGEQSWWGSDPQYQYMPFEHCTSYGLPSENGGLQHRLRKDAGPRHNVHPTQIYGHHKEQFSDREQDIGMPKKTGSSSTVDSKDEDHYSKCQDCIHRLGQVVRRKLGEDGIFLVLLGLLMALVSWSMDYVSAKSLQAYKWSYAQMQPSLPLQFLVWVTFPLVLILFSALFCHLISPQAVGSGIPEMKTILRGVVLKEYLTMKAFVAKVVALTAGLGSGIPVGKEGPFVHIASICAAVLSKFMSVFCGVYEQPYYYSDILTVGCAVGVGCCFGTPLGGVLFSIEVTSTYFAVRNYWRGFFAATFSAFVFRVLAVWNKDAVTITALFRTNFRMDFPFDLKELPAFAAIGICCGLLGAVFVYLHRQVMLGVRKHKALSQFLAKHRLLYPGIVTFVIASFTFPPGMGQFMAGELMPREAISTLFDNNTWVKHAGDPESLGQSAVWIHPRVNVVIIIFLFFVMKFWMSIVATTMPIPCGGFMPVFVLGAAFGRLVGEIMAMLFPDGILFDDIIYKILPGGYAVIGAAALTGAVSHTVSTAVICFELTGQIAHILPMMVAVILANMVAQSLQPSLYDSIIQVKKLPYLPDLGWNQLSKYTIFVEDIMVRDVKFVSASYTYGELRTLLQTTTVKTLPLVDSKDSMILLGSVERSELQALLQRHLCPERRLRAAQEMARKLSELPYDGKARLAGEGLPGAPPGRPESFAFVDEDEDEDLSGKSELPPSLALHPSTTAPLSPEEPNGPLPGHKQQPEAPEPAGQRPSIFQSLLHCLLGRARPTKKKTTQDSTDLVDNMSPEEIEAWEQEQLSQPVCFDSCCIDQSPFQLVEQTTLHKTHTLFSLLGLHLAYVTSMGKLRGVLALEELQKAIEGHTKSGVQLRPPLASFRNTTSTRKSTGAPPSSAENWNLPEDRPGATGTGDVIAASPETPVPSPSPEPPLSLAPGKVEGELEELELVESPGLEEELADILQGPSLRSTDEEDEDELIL

Regarding `C[C@H](Oc1ccc(Br)cc1F)C(=O)O` [Compound A-31, (2S)-2-(4-bromo-2-fluorophenoxy)propanoi c acid], on CIC-1 channels, the EC50 (usually the concentration at which the effect is half-maximal) stood at 7.2 ± 2.8 µM. Also, the activation at 50 µM in the assay on soleus muscles was 42%. Moreover, in the assay with female Lewis rats (20 mg/kg i.v.), the “average increase in twitch peaks” value is 7.3% and the “average increase in tetanic force” value was 29.8%. Moreover, the “restore force to muscles in vivo” value in the assay with female Lewis rats is reported as “can restore force”.

Turning to `COC[C@H](Oc1ccc(Br)cc1Br)C(=O)O` [Compound A-74, (2S)-2-(2,4-dibromophenoxy)-3-methoxypropanoic acid], the midpoint of the response at CIC-1 channels, the EC50, lay at 4 ± 0.1 µM. Besides, the activation at 50 µM in the assay with soleus muscles was 42%. For the same compound, the ΔV1/2 at human CIC-1 channels was 10.4 mV.

On CIC-1 channels, `O=C(O)[C@H](CCF)Oc1ccc(Br)cc1F` [Compound A-85, (2S)-2-(4-bromo-2-fluorophenoxy)-4-fluorobutanoic acid] had an EC50 of 10 ± 9.5 µM. Further, the activation at 50 µM in the assay on soleus muscles stood at 37%. The ΔV1/2 on human CIC-1 channels is 12.5 mV.

Compound `O=C(O)[C@@H](Oc1ccc(Br)cc1F)C1CC1` [Compound A-89, (2S)-2-(4-bromo-2-fluorophenoxy)-2-cyclopropylacetic acid] had an EC50 at CIC-1 channels of 8.7 ± 1.4 µM. Besides, the activation at 50 µM with soleus muscles worked out at 33%. For the same compound, the ΔV1/2 on human CIC-1 channels was 10.3 mV.

`C[C@@H](F)[C@H](Oc1ccc(Br)cc1)C(=O)O` [Compound A-94, (2R,3R)-2-(4-bromophenoxy)-3-fluorobutanoic acid] showed an EC50 on CIC-1 channels of 12 ± 3.2 µM. Moreover, the activation at 50 µM in the assay on soleus muscles was 31%. Moreover, in the assay on female Lewis rats (21 mg/kg i.v.), the “average increase in twitch peaks” value is given as 11.5% and the “average increase in tetanic force” value is 34.8%. Besides, the “restore force to muscles in vivo” value with female Lewis rats was “can restore force”.

As to `C[C@@H](F)[C@H](Oc1ccc(Br)cc1F)C(=O)O` [Compound A-95, (2R,3R)-2-(4-bromo-2-fluorophenoxy)-3-fluorobutanoic acid], the EC50 at CIC-1 channels turned out to be 12.5 ± 1.4 µM. Further, the activation at 50 µM in the assay with soleus muscles amounted to 39%. Further, the ΔV1/2 at human CIC-1 channels came to 10.3 mV.
